Test results published in ChEMBL document CHEMBL1201862, “PubChem BioAssay data set” (2004).
Values belong to the compound of their own block, whether it stands above or below them. Activity calls are given as the source filed them.

Columns and labels:
[1] = NIH-3T3 fibroblast cytotoxicity, dose response, cytotoxicity control, cell-based, fluorescence, Alamar Blue, secondary assay (AID 2327); format: functional;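 further: NIH-3T3 mouse fibroblasts cultured with fluconazole at 8 µg/mL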
[2] = fluconazole-exposed Candida albicans growth modulators – fluorescence, retest, confirmation (AID 2467); format: functional, cell-based
[3] = system: SN12K1; experiment: cells; format: functional; details: Homo sapiens
[4] = system: P388/ADR; experiment: cells; format: functional; details: Mus musculus
[5] = viability of uninfected HEp-2 cells – cell-based, HTS, cytotoxicity control for RSV inhibitor project, dose response (AID 2410); format: functional; details: human respiratory syncytial virus
[6] = viability of HCT116 lacking mutant beta-catenin – cell-based, human colon tumor, dose response (AID 1045); format: functional;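 further: HCT116 colon tumor cells with beta catenin knocked out; cells exposed to compound for 60 hours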
[7] = viability of PTEN-deleted HCT116 cells – cell-based, HCT116 PTEN knockout, dose response (AID 1047); format: functional;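 further: HCT116 colon tumor cells with PTEN knocked out; cells exposed to compound for 60 hours before readout; potency for loss of cell viability measured by luminescence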
[8] = molecular target: T1, Corticotropin-releasing factor receptor 2/Corticotropin-releasing factor-binding protein (Homo sapiens, UniProt P24387+Q13324); experiment: Dose Response confirmation of uHTS hits for small molecule antagonists of the CRF-binding protein and CRF-R2 receptor complex.; format: functional; details: read-out: IC50_Mean
T1 sequence (Q13324 whole entry): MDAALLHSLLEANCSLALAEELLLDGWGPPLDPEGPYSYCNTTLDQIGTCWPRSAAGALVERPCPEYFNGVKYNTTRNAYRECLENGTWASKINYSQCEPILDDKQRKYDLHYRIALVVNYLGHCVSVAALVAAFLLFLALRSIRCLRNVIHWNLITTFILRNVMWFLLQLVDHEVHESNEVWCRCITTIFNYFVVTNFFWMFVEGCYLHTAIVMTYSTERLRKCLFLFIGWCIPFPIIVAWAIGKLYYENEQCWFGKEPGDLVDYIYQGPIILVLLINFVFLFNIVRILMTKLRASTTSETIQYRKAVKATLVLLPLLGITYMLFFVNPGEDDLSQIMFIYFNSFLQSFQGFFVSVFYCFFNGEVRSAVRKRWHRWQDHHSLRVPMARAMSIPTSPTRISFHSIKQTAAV
T1 sequence (P24387 whole entry): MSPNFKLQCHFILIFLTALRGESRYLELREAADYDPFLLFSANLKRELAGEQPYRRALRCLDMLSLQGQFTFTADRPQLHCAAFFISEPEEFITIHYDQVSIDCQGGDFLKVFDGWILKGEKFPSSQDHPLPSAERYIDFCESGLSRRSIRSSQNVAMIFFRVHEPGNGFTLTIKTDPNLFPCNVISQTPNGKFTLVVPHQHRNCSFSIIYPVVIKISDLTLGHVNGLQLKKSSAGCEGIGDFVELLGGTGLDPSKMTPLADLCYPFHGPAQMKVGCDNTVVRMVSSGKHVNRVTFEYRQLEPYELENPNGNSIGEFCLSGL

[9] = molecular target: T2, Heat shock factor protein 1 (Mus musculus, UniProt P38532); experiment: enhancement of HSF1-driven luciferase signal – cell-based, NIH3T3, luminescence, dose retest, confirmation (AID 435004); format: functional;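 further: stress induced by proteasome inhibitor MG132 added 30 min after compound; luciferase reporter driven by HSF1 response element in NIH3T3 cells; actives raise luminescence as potentiators of the MG132 stress response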
T2 sequence (P38532 whole entry): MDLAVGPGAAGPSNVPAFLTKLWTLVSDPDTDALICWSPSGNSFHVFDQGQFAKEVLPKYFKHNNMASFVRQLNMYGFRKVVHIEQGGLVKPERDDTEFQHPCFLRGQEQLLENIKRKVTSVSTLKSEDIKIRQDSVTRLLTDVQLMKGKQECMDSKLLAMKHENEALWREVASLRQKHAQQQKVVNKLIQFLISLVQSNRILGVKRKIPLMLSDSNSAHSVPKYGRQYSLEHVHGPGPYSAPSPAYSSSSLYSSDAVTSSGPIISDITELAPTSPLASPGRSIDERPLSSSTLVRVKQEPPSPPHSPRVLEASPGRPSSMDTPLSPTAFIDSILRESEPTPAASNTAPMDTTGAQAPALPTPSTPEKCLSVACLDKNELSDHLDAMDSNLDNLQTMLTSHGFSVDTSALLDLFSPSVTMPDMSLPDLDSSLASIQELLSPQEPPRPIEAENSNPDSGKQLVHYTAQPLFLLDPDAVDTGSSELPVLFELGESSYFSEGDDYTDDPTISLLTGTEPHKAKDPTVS

[10] = molecular target: T1, Corticotropin-releasing factor receptor 2/Corticotropin-releasing factor-binding protein; experiment: activators of CRF receptor 2 with binding protein – uHTS hits, confirmation (AID 602473); format: functional; details: read-out: EC50_Mean
[11] = molecular target: T3, Cytochrome P450 1A2 (Homo sapiens, UniProt P05177);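 further: PubChem cytochrome P450 panel assay, CYP1A2 panel member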
T3 sequence (P05177 whole entry): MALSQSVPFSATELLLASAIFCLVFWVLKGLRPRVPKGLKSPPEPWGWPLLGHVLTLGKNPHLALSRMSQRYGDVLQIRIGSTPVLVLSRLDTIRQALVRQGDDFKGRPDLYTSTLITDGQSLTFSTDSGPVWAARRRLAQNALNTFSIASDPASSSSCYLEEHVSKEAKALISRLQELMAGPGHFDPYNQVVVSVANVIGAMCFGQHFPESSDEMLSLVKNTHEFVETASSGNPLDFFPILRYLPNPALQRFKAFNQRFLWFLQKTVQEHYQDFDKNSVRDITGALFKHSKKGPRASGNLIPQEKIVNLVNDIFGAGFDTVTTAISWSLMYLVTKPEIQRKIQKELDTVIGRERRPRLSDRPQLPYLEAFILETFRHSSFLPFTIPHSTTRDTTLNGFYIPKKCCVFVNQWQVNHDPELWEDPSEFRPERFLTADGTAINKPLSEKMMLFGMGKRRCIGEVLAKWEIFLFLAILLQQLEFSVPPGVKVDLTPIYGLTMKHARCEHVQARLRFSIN

[12] = molecular target: Cytochrome P450 2C19 (Homo sapiens, UniProt P33261); experiment: Cytochrome panel assay with activity outcomes. Panel member name: p450-cyp2c19 Compounds with AC50 equal or less than 10 uM are considered active; format: functional; details: read-out: AC50
[13] = molecular target: Cytochrome P450 3A4 (Homo sapiens, UniProt P08684);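 further: CYP3A4 tested as one member of a cytochrome P450 panel screen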
[14] = molecular target: Induced myeloid leukemia cell differentiation protein Mcl-1 (Homo sapiens, UniProt Q07820); format: functional
[15] = NIH3T3 cell viability loss – ATP luminescence, mouse fibroblasts, counter-screen, dose response (AID 2010); format: functional, cell-based;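 further: cells exposed to compound for about 90 hours before reading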
[16] = Trypanosoma cruzi growth suppression in host cells – NIH3T3 host cells, beta-gal luminescence, confirmation (AID 2044); format: functional, cell-based;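 further: intracellular parasites grown in NIH/3T3 mouse fibroblasts as host cells; luminescent beta-galactosidase reporter signal from transgenic T. cruzi replicating inside host cells; inhibitors lower the luminescence signal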
[17] = reduction of Shn3 3'UTR-driven luciferase in osteoblasts – cell-based, Clone20 osteoblasts, firefly luciferase, cherry-picked, dose response (AID 624132); format: functional;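 further: firefly luciferase luminescence from reporter carrying the Shn3 3'UTR in osteoblasts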
[18] = molecular target: T4, Zinc finger protein mex-5 (Caenorhabditis elegans, UniProt Q9XUB2); experiment: potency of MEX-5 RNA-binding blockers – biochemical, C. elegans, fluorescence polarization, dose response (AID 1960)
T4 sequence (Q9XUB2 whole entry): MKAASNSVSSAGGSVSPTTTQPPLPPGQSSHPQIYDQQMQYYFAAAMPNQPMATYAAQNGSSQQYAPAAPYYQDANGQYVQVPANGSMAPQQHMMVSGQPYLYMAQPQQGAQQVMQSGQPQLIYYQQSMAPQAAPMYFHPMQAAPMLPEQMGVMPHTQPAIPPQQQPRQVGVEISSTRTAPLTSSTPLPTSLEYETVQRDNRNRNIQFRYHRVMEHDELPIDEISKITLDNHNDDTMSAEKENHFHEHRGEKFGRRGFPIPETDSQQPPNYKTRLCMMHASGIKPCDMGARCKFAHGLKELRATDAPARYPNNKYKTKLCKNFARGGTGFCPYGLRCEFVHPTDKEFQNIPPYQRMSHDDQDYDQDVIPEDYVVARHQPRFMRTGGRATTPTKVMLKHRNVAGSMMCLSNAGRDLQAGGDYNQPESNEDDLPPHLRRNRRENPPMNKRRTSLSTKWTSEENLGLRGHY

[19] = molecular target: T5, RNA-binding protein pos-1 (Caenorhabditis elegans, UniProt G5EF15); experiment: disruptors of C. elegans POS-1 RNA interaction – biochemical, fluorescence polarization, dose response (AID 1964);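 further: purified POS-1 fused to maltose binding protein made in E. coli; potency of compounds blocking POS-1 binding to fluorescent RNA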
T5 sequence (G5EF15 whole entry): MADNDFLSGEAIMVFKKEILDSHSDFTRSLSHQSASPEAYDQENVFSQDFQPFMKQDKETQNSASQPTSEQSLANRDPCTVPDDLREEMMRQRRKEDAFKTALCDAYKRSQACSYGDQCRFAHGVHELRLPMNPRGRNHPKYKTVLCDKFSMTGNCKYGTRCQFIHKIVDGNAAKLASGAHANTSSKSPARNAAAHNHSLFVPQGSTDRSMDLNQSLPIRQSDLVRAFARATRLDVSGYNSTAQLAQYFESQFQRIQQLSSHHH

[20] = system: BJ; experiment: BJ-TERT fibroblast viability loss – cell-based, RAS-independent, luminescence, dose response (AID 1933); format: functional; details: Homo sapiens
[21] = DRD fibroblast viability loss – cell-based, non-viral oncogenic, luminescence, dose response (AID 1934); format: functional; details: Homo sapiens
[22] = system: BJ; experiment: cells; format: functional, cell-based; details: Homo sapiens

Chain of Induced myeloid leukemia cell differentiation protein Mcl-1 (Q07820 whole entry): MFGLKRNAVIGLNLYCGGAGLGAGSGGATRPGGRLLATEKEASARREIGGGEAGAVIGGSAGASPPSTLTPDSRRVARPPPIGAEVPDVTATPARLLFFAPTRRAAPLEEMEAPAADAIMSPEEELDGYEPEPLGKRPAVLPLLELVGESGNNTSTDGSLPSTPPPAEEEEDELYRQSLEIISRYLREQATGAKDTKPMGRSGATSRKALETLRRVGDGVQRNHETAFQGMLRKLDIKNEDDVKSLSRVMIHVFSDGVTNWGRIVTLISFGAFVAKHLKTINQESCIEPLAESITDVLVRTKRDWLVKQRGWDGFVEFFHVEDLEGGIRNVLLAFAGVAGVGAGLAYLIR
Chain of Cytochrome P450 2C19 (P33261 whole entry): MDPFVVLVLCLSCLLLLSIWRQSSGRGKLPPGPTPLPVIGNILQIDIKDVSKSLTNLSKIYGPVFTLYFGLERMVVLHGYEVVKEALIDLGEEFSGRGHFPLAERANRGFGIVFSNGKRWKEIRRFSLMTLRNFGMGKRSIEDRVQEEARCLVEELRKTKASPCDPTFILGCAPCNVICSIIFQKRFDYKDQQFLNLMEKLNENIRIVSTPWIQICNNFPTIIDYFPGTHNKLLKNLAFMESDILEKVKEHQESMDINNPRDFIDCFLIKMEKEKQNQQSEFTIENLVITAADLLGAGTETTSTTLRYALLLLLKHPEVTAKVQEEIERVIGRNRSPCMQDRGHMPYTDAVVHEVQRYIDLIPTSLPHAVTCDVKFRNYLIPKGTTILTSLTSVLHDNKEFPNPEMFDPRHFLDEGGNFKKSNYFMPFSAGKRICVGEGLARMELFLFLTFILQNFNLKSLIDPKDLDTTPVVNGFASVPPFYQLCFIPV
Chain of Cytochrome P450 3A4 (P08684 whole entry): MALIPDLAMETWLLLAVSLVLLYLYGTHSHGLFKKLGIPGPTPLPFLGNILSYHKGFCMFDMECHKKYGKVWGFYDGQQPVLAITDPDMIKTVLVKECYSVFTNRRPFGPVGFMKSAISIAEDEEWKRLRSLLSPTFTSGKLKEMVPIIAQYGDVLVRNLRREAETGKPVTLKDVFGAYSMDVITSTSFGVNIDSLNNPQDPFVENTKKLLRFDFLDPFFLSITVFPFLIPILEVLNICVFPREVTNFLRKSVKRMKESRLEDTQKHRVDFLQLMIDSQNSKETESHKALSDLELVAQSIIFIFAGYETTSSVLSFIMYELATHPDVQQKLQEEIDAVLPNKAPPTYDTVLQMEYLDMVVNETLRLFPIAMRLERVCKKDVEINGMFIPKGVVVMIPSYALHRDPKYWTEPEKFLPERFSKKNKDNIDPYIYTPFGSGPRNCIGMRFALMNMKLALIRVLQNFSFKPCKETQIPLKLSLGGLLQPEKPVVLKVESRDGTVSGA

Structure (SMILES): Cc1nc2sc(C(c3cccc(F)c3)N3CCCC(C)C3)c(O)n2n1 (centres undefined)
EC50 [1]: > 150 µM (inactive)
EC50 [2]: 1.82 µM (active)

GI50 [4]: > 100 µM (inactive)
Structure (SMILES): COc1cc(/C=C(\C#N)C(N)=O)cc(Br)c1O
GI50 [3]: 95.3 µM (inactive)

Structure (SMILES): COc1cc(NC(=S)N2CCN(S(=O)(=O)c3ccccc3)CC2)cc(OC)c1
EC50 [1]: > 160 µM (inconclusive)
EC50 [2]: > 38 µM (not active)

Structure (SMILES): O=[N+]([O-])c1ccc(N=Nc2c(O)[nH]c3ccc(F)cc23)cc1
CC50 [5]: 26.1 µM (active)

Structure (SMILES): N#Cc1c(NC(=O)CSC2=NCCS2)sc2c1CCCC2
CC50 [5]: 22.5 µM (active)

Structure (SMILES): CCC(Oc1ccccc1)C(=O)Nc1ncc([N+](=O)[O-])s1 (centres undefined)
EC50 [1]: > 160 µM (inactive)
EC50 [2]: 1.5 µM (active)

Structure (SMILES): COCCOC(=O)C1=C(C)N(Cc2ccccc2)C(=O)NC1c1ccc(OC)cc1 (centres undefined)
CC50 [5]: 23.2 µM (active)

Structure (SMILES): Cc1ccc(S(=O)(=O)c2nc(-c3ccc(F)cc3)oc2SCC(=O)NCC2CCCO2)cc1 (centres undefined)
EC50 [6]: 35.3 µM (active)
EC50 [7]: 83.1 µM (active)

IC50 [8]: > 47.1 µM (inactive)
EC50 [9]: > 260 µM (inactive)
EC50 [10]: > 53 µM (inactive)
Structure (SMILES): CCOC(=O)C1CCCN(C(=O)c2ccc(Cl)c(S(=O)(=O)N3CCCCC3)c2)C1 (centres undefined)

AC50 [11]: 28.2 µM (inconclusive)
AC50 [12]: 11.2 µM (inconclusive)
AC50 [13]: 15.8 µM (inconclusive)
Structure (SMILES): CC(C)(C)c1ccc(C2CC2C(=O)N/N=C\c2cc3ccccc3nc2Cl)cc1 (centres undefined)
CC50 [5]: 20.1 µM (active)

IC50 [14]: 2.4 µM (active)
Structure (SMILES): CC(=O)Nc1sc(N/N=C\c2ccc(O)cc2)nc1-c1cccs1

Structure (SMILES): O=C(NC1CCCCC1)C(c1ccncc1)N(Cc1ccccc1)C(=O)c1ccc(-c2ccccc2)[nH]1 (centres undefined)
CC50 [5]: 7.92 µM (active)
EC50 [15]: > 60 µM (not active)
EC50 [16]: 0.413 µM (active)

Structure (SMILES): Cc1ccc(S(=O)(=O)N2CCC(Oc3cccc(C(F)(F)F)c3)CC2)cc1
CC50 [5]: 16.5 µM (active)

Structure (SMILES): COc1ccc(/C=C/C(=O)Oc2ccc(/C=N/NC(=O)c3ccccc3)cc2)cc1OC
EC50 [6]: 25.8 µM (active)
EC50 [7]: 27.7 µM (active)

Structure (SMILES): Cc1cccc(N2CCN(C(=O)c3cn(C)c(=O)c4c3c3ccccc3n4C)CC2)c1C
EC50 [6]: 18.6 µM (active)
EC50 [7]: 19.1 µM (active)

IC50 [14]: 3.74 µM (active)
Structure (SMILES): Cc1cc(C(=O)N/N=C/c2ccc(O)c([N+](=O)[O-])c2)c(C)n1-c1ccc(F)cc1

Structure (SMILES): O=C1NC2(CCC3(CC2)OCCO3)NN1c1ccccc1
EC50 [1]: > 160 µM (inconclusive)
EC50 [2]: > 38 µM (not active)

Structure (SMILES): CCCOc1cccc(C(=O)N/N=C/c2coc3ccccc3c2=O)c1
EC50 [1]: 28.2 µM (active)
EC50 [2]: > 38 µM (not active)

Structure (SMILES): CCS(=O)(=O)c1ccc2oc(SCC(=O)N3CCCCC3)nc2c1
AC50 [17]: > 70 µM (inactive)

AC50 [11]: 31.6 µM (inconclusive)
EC50 [18]: 13.8 µM (active)
IC50 [14]: 3.9 µM (active)
EC50 [19]: 15.8 µM (active)
Structure (SMILES): COc1cc(C2C(C#N)=C(N)OC3=C2C(=O)CCC3)c([N+](=O)[O-])cc1OC (centres undefined)

Structure (SMILES): O=C(COC(=O)c1c2c(nc3ccccc13)CCCC2)Nc1ccc2c(c1)OCO2
EC50 [7]: 44.5 µM (active)

IC50 [14]: < 0.4 µM (not active)
Structure (SMILES): CC(=O)Oc1ccc(NC(=O)CSc2ccccc2)cc1

Structure (SMILES): O=C(NCc1ccc(F)cc1)c1ccc(CS(=O)(=O)Cc2ccccc2F)o1
EC50 [1]: > 150 µM (inactive)
EC50 [2]: 6.51 µM (active)

Structure (SMILES): COC(=O)c1ccc(Cn2cnc3c(sc4nc(N5CCOCC5)c5c(c43)CCCC5)c2=O)o1
CC50 [5]: > 50 µM (active)

Structure (SMILES): CCc1ccc(/C=C2/SC(=S)N(CCC(=O)NCCCN3CCOCC3)C2=O)cc1
EC50 [20]: 1.32 µM (active)
EC50 [21]: > 38 µM (not active)
EC50 [22]: 14.5 µM (active)

Structure (SMILES): Cc1ccc(-c2nnn(CC(=O)N(Cc3ccco3)C(C(=O)NC(C)(C)C)c3ccncc3)n2)o1 (centres undefined)
EC50 [1]: > 150 µM (inactive)
EC50 [2]: > 38 µM (not active)
